Paper PMC10791743, “Selective CK1α degraders exert antiproliferative activity against a broad range of human cancer cell lines” (Nature Communications, 2024)
Values joined by “and” are separate entries in the source; they are usually repeats but may differ in a detail not shown here. Equal values may be shown once. “Also recorded” adds a separate entry of the source. Read-outs that look alike come from different tables or passages of the source.

What was measured:
[1] = system: MOLM-13 cells overexpressing FLAG-tagged wild type CK1α; experiment: CK1α mutant rescue, CTG viability, FLAG-CK1α wild type MOLM-13; assay type: cell-based, human
Description: (§1) To evaluate the contribution of the CK1α degradation in SJ3149-mediated cytotoxicity, we utilized the degradation-resistant mutant CK1α G40N[41]. MOLM-13 cells were transduced with lentivirus to overexpress FLAG-tagged wild type CK1α or the G40N mutant, which removes the essential glycine in the CK1α degron G-loop.
(§2) The media was changed after cells rested in the 37 °C incubator overnight. […] As described above in the Molecular Glue Library Screening section, transduced MOLM-13 cells were seeded in 384-well plates at 1250 cells per well and allowed to rest overnight. 30 nl of CK1α degraders of interest were deposited on the cells using an Echo 650 acoustic liquid handler […]. […] This was done twice for a total of six technical replicates.

[2] = system: 115 human cancer cell lines; experiment: Oncolines panel cell viability assay (ATPlite, 72 h); assay type: cell-based; details: for IC50: Homo sapiens
Text: To evaluate the compound’s effect and potential therapeutic application across a diverse range of human cancers, we profiled SJ3149 in Oncolines® panel consisting of 115 human cancer cell lines, of which 86 were solid tumor and 29 hematologic cell lines, including MOLM-13. Effect on cell viability was monitored using ATPLite™ (Perkin Elmer), which measures intracellular ATP content as an indirect readout of cell number, like CellTiter Glo.
Cell lines were purchased from the American Type Culture Collection (ATCC) (Manassas, VA, USA) or the German Collection of Microorganisms and Cell Cultures (DSMZ) (Braunschweig, Germany). All experiments were carried out within ten passages of the original vials. Authenticity of the cell lines was confirmed by short tandem repeat analysis at the respective provider.
Cell viability assays were performed as previously described. In brief, cells were seeded in a 384-well plate at an optimized density. The starting cell number was determined after 24 h incubation by adding ATPlite 1Step (Perkin Elmer, Groningen, the Netherlands) to each well and recording luminescence on an Envision multimode reader (Perkin Elmer, Waltham, MA). After the addition of a duplicate 9-point dilution series of SJ3149, cells were incubated for another 72 h, followed by cell counting using ATPlite 1Step. The dilution series ranged from 3.2 to 31,600 nM or was diluted 100-fold for the most sensitive cell lines to ideally capture the complete dose–response curve. Percentage viability was determined at each compound concentration by relating the observed signal to a vehicle-treated control, that is, medium containing 0.4% (v/v) DMSO. Compound IC50 values were calculated by fitting a 4-parameter logistic curve to the percentage viability values using IDBS XLfit5 (IDBS, Guildford, UK). The IC50 was limited to the maximum tested compound concentration when the IC50 exceeded the maximum tested concentration.

[3] = system: MOLM-13 cells overexpressing FLAG-tagged CK1α G40N mutant; experiment: CK1α mutant rescue, CTG viability, FLAG-CK1α G40N MOLM-13; assay type: cell-based, human
Description: as §1, §2

Compound: O=C1CCC(N2Cc3cc(Nc4noc5ccccc45)ccc3C2=O)C(=O)N1 (stereo not drawn) [SJ3149]
- cell viability percentages, CK1a ([1]; Concentration 0.000542): 105.205% and 58.6715% and 64.466% and 67.6161% and 69.6541% and 82.1036%
- cell viability percentages, CK1a ([1]; Concentration 0.001625): 74.2908% and 52.9731% and 67.1789% and 57.7783% and 62.7672% and 68.828%
- cell viability percentages, CK1a ([1]; Concentration 0.004875): 36.1307% and 42.7391% and 40.1045% and 39.1839% and 40.0413% and 49.9053%
- cell viability percentages, CK1a ([1]; Concentration 0.043872): 2.187% and 2.943% and 4.508% and 8.798% and 6.315% and 7.182%
- cell viability percentages, CK1a ([1]; Concentration 0.131617): 3.39% and 3.498% and 5.044% and 4.581% and 3.4782% and 4.037%
- cell viability percentages, CK1a ([1]; Concentration 0.394851): 2.449% and 1.756% and 2.718% and 2.322% and 1.473% and 1.9709%
- cell viability percentages, CK1a ([1]; Concentration 1.18455): 1.709% and 1.723% and 2.012% and 1.573% and 1.103% and 1.1327%
- cell viability percentages, CK1a ([1]; Concentration 3.55366): 1.548% and 0.8978% and 0.8701% and 0.5259% and 0.4164% and 0.8076%
- Bottom (line fit, sigmoidal 4PL) of cell viability, CK1a ([1]; FLAG-CK1a WT cells): 1.012%
- Top (line fit, sigmoidal 4PL) of cell viability, CK1a ([1]; FLAG-CK1a WT cells): 80.73%
- IC50 ([1]; Homo sapiens, MOLM-13, read-out: IC50 (line fit, sigmoidal 4PL) of cell viability, CK1a): 5.26 nM
- Inhibition of viability in Oncolines panel cell lines ([2]; ATPlite, 72 h): potently inhibited the viability of AML cell lines; also recorded: potently inhibited the viability of multiple cell lines derived from solid tumors; also recorded: low nanomolar or even sub-nanomolar potency
- IC50 ([2]; 769-P, cell line 769-P, Renal cell carcinoma, TP53 Wild-type, read-out: IC50): 101 nM
- IC50 ([2]; A204, cell line A-204, Embryonal rhabdomyosarcoma, TP53 Wild-type, read-out: IC50): 16 nM
- IC50 ([2]; A498, cell line A-498, Renal cell carcinoma, TP53 Wild-type, read-out: IC50): 5660 nM
- IC50 ([2]; A549, cell line A-549, Lung adenocarcinoma, TP53 Wild-type, read-out: IC50): 38 nM
- IC50 ([2]; A-375, cell line A375, Amelanotic melanoma, TP53 Wild-type, read-out: IC50): 33 nM
- IC50 ([2]; ACHN, cell line ACHN, Papillary renal cell carcinoma, TP53 Wild-type, read-out: IC50): 187 nM
- IC50 ([2]; AU565, cell line AU-565, Breast adenocarcinoma, TP53 Mutant, read-out: IC50): 19200 nM
- IC50 ([2]; B-cell, HT, Diffuse large B-cell lymphoma, read-out: IC50): > 31600 nM
- IC50 ([2]; B-cell, RL, Diffuse large B-cell lymphoma, TP53 Mutant, read-out: IC50): 27200 nM
- IC50 ([2]; B-cell, cell line DB, Diffuse large B-cell lymphoma, TP53 Mutant, read-out: IC50): > 31600 nM
- IC50 ([2]; BT-20, cell line BT-20, Invasive ductal carcinoma, TP53 Mutant, read-out: IC50): 30 nM
- IC50 ([2]; BT-549, cell line BT-549, Invasive ductal carcinoma, TP53 Mutant, read-out: IC50): 12 nM
- IC50 ([2]; CCRF-CEM, cell line CCRF-CEM, Childhood T acute lymphoblastic leukemia, TP53 Mutant, read-out: IC50): 24100 nM
- IC50 ([2]; CCRF-HSB-2, CCRF-HSB-2 cells, T-ALL, read-out: IC50): 16 nM
- IC50 ([2]; CCRF-HSB-2, cell line CCRF-HSB-2, Childhood T acute lymphoblastic leukemia, TP53 Wild-type, read-out: IC50): 16 nM
- IC50 ([2]; CTV-1, cell line CTV-1, Adult T acute lymphoblastic leukemia, TP53 Wild-type, read-out: IC50): 212 nM
- IC50 ([2]; DU-4475, cell line DU4475, Breast carcinoma, TP53 Wild-type, read-out: IC50): 16 nM
- IC50 ([2]; HuTu80, HuTu 80, Duodenal adenocarcinoma, read-out: IC50): 4.6 nM
- IC50 ([2]; J82, Bladder carcinoma, read-out: IC50): > 31600 nM
- IC50 ([2]; JAR, Gestational choriocarcinoma, read-out: IC50): 69 nM
- IC50 ([2]; JM-1, B acute lymphoblastic leukemia, read-out: IC50): 39 nM
- IC50 ([2]; Jurkat E6.1, Jurkat E6.1, Childhood T acute lymphoblastic leukemia, read-out: IC50): 21200 nM
- IC50 ([2]; KATO III, Signet ring cell gastric adenocarcinoma, read-out: IC50): 31400 nM
- IC50 ([2]; KG-1, Adult acute myeloid leukemia, read-out: IC50): 3480 nM
- IC50 ([2]; KLE, Endometrial adenocarcinoma, read-out: IC50): 28 nM
- IC50 ([2]; KU812, KU812, Chronic myelogenous leukemia, read-out: IC50): 0.75 nM
- IC50 ([2]; LNCaP, LNCaP FGC, Prostate carcinoma, read-out: IC50): 91 nM
- IC50 ([2]; LS174T, LS 174T, Colon adenocarcinoma, read-out: IC50): 16 nM
- IC50 ([2]; LoVo, Colon adenocarcinoma, read-out: IC50): 0.28 nM
- IC50 ([2]; MCF7, MCF7, Invasive ductal carcinoma, read-out: IC50): 18 nM
- IC50 ([2]; MOLM-13, MOLM-13, Adult acute myeloid leukemia, read-out: IC50): 4.2 nM
- IC50 ([2]; MOLM-13, MOLM-13 cells, AML, read-out: IC50): 4.2 nM
- IC50 ([2]; MOLT-4, MOLT-4, Adult T acute lymphoblastic leukemia, read-out: IC50): 35 nM
- IC50 ([2]; NB4, Acute promyelocytic leukemia with PML-RARA, read-out: IC50): > 31600 nM
- IC50 ([2]; NCCIT, Testicular embryonal carcinoma, read-out: IC50): 4.2 nM
- IC50 ([2]; NOMO-1, NOMO-1, Adult acute monocytic leukemia, read-out: IC50): 53 nM
- IC50 ([2]; PA-1, Ovarian mixed germ cell tumor, TP53 Wild-type, read-out: IC50): 2.8 nM
- IC50 ([2]; PC-3, Prostate carcinoma, TP53 Mutant, read-out: IC50): > 31600 nM
- IC50 ([2]; RD, Embryonal rhabdomyosarcoma, TP53 Mutant, read-out: IC50): 104 nM
- IC50 ([2]; RKO, Colon carcinoma, TP53 Wild-type, read-out: IC50): 26800 nM
- IC50 ([2]; RL95-2, RL95-2, Endometrial adenosquamous carcinoma, TP53 Mutant, read-out: IC50): 58 nM
- IC50 ([2]; RPMI 8402, RPMI-8402, Childhood T acute lymphoblastic leukemia, TP53 Wild-type, read-out: IC50): 24200 nM
- IC50 ([2]; RS4-11, RS4-11, Adult B acute lymphoblastic leukemia, TP53 Wild-type, read-out: IC50): 2.1 nM
- IC50 ([2]; RT4, Bladder carcinoma, TP53 Wild-type, read-out: IC50): 1240 nM
- IC50 ([2]; SEM, Childhood B acute lymphoblastic leukemia, TP53 Mutant, read-out: IC50): 134 nM
- IC50 ([2]; SET-2, SET-2, Adult acute megakaryoblastic leukemia, TP53 Mutant, read-out: IC50): 32 nM
- IC50 ([2]; SJCRH30, Alveolar rhabdomyosarcoma, TP53 Mutant, read-out: IC50): > 31600 nM
- IC50 ([2]; SK-N-FI, Neuroblastoma, TP53 Mutant, read-out: IC50): 36 nM
- IC50 ([2]; SR, Anaplastic large cell lymphoma, TP53 Mutant, read-out: IC50): 58 nM
- IC50 ([2]; SR, SR cells, ALCL, read-out: IC50): 58 nM
- IC50 ([2]; SU-DHL-1, SU-DHL-1, Anaplastic large cell lymphoma, TP53 Mutant, read-out: IC50): 12900 nM
- IC50 ([2]; SU-DHL-6, SU-DHL-6, Diffuse large B-cell lymphoma, TP53 Mutant, read-out: IC50): 79 nM
- IC50 ([2]; SW48, SW48, Colon adenocarcinoma, TP53 Wild-type, read-out: IC50): 19 nM
- IC50 ([2]; SW900, SW900, Squamous cell lung carcinoma, TP53 Mutant, read-out: IC50): 419 nM
- IC50 ([2]; SW982, SW982, Biphasic synovial sarcoma, TP53 Wild-type, read-out: IC50): 11 nM
- IC50 ([2]; T24, Bladder carcinoma, TP53 Mutant, read-out: IC50): > 31600 nM
- IC50 ([2]; cell line 5637, Bladder carcinoma, TP53 Mutant, read-out: IC50): 27800 nM
- IC50 ([2]; cell line A388, Squamous cell carcinoma, TP53 Mutant, read-out: IC50): > 31600 nM
- IC50 ([2]; cell line AP-1060, Acute promyelocytic leukemia with PML-RARA, TP53 Unknown, read-out: IC50): 1.3 nM
- IC50 ([2]; cell line ES-2, Ovarian clear cell adenocarcinoma, TP53 Mutant, read-out: IC50): > 31600 nM
- IC50 ([2]; cell line TT (Hereditary thyroid gland medullary carcinoma), TP53 Wild-type, read-out: IC50): 2.2 nM
- IC50 ([2]; multiple cell lines from diverse tumor tissue origins, read-out: IC50 in insensitive cell lines): > 31600 nM
- Viability response of cells expressing CK1α G40N vs wild type CK1α ([3]; CTG 72 h): no longer sensitive to SJ3149; also recorded: reduced response
- cell viability percentages, CK1a G40N ([3]; Concentration 0.000542): 79.1206% and 68.9136% and 86.2719% and 90.6755% and 74.2686% and 67.4931%
- cell viability percentages, CK1a G40N ([3]; Concentration 0.001625): 77.8434% and 63.4222% and 59.9052% and 65.772% and 68.5727% and 55.5817%
- cell viability percentages, CK1a G40N ([3]; Concentration 0.004875): 72.8442% and 62.075% and 50.1243% and 53.1953% and 62.3344% and 69.4392%
- cell viability percentages, CK1a G40N ([3]; Concentration 0.014624): 59.4413% and 49.1388% and 62.3084% and 70.556% and 54.4032% and 55.8792%
- cell viability percentages, CK1a G40N ([3]; Concentration 0.043872): 47.6849% and 48.0051% and 58.611% and 66.0269% and 52.3495% and 54.2867%
- cell viability percentages, CK1a G40N ([3]; Concentration 0.131617): 56.3532% and 47.9219% and 49.9326% and 67.2267% and 57.1406% and 57.2358%
- cell viability percentages, CK1a G40N ([3]; Concentration 0.394851): 51.3415% and 43.4521% and 48.9175% and 55.4224% and 56.3876% and 59.8672%
- cell viability percentages, CK1a G40N ([3]; Concentration 1.18455): 47.8506% and 47.8436% and 44.0498% and 54.2517% and 50.6636% and 54.2115%
- cell viability percentages, CK1a G40N ([3]; Concentration 3.55366): 37.4202% and 38.8791% and 44.5898% and 50.284% and 52.251% and 51.3543%
